Experimental data: patent US20060025478A1, “Medicine for prevention or treatment of diabetes” (priority 2004, published 2006)

Test system: C57BL/KsJ db/db mice
Assay: Hypoglycemic effect of single or combined administration in db/db mice (plasma glucose concentration)
Assay type: in vivo, mouse
Conditions: for Decreasing effect for the plasma glucose concentration (in words) / Relative index (mean plasma glucose of group / mean of control group) / Decreasing rate (of plasma glucose concentration vs control group): 14th day; for Decreasing effect for the plasma glucose concentration (in words): compared with db/+m normal mouse (187±16); for Relative index (mean plasma glucose of group / mean of control group) / Decreasing rate (of plasma glucose concentration vs control group) / Plasma glucose concentration: oral once a day for 14 days; for Decreasing rate (of plasma glucose concentration vs control group): (control mean − group mean)/control mean ×100; for Plasma glucose concentration: plasma 2 hours after administration on the 14th day, mean±standard deviation for 6 mice, control group 499 ± 81
Method: As test animals, C57BL/KsJ db/db mice were used, which were created in Jackson Laboratory (USA) and known as an obesity, hyperlipemia, hyperinsulinemia, and insulin-resistant model (Journal of Clinical Investigation, 85, pp 962-967, 1990). Blood was collected from the orbital venous plexus of each 7-week-old db/db mouse using a heparin-treated capillary tube, and centrifugation was performed to collect plasma. Thereafter, the plasma glucose concentration (Glucose CII-Test Wako (Wako Pure Chemical Industries, Ltd.)), the insulin concentration (Lebis Insulin Kit: for mouse-T (SHIBAYAGI)), and the triglyceride concentration (Triglyceride E-Test Wako (Wako Pure Chemical Industries, Ltd.)) were measured for classification. The classification was performed so that distribution of each measurement item is uniform for each group by block allocation based on many variables in which the plasma glucose concentration is most emphasized using the measured values of the plasma glucose concentration, the body weight, the insulin concentration, and the triglyceride concentration. […] Two hours after the administration of the medicines on the 14th day from the beginning day of the administration, blood was collected from the orbital venous plexus, and the plasma thereof was collected to measure the plasma glucose concentration. […] Each plasma glucose concentration is expressed as mean±standard deviation for 6 mice of each group. Each decreasing rate is calculated from ((mean of plasma glucose concentration of control group)−(mean of plasma glucose concentration of each group))/(mean of plasma glucose concentration of control group)×100, while each relative index is calculated from (mean of plasma glucose concentration of each group)/(mean of plasma glucose concentration of control group)

SMILES	Decreasing effect for the plasma glucose concentration (in words)	Relative index (mean plasma glucose of group / mean of control group)	Decreasing rate (of plasma glucose concentration vs control group)	Plasma glucose concentration
CCc1ccc(CCOc2ccc(CC3SC(=O)NC3=O)cc2)nc1.Cl (centres unmarked) [Pioglitazone hydrochloride, 5-[4-[2-(5-Ethyl-2-pyridyl)ethoxy]benzyl]thiazolidine-2,4-dione hydrochloride]	insufficient	0.80	20%	401 ± 173 mg/dL
O=C([O-])C(Cl)(Cl)CCCCCCCCCCc1ccc(Cl)cc1.[Na+] [sodium 2,2-dichloro-12-(4-chlorophenyl)-dodecanoate]	insufficient	0.92	8%	459 ± 77 mg/dL
